For one data set, the system named is complementary RNA. The data set can be described thus: Thermal denaturation (UV melting) of AON duplexes with complementary RNA. The format is binding. The following applies: 1 μM of each strand, medium salt buffer pH 7.5, average of at least three runs. The method, then: All 17 modified AONs have been purified as a single component on PAGE (20% polyacrylamide with 7 Molar urea), extracted with 0.3 M NaOAc and desalted with C-18 reverse phase cartridge to give AONs in >99% purity and correct mass have been obtained by MALDI-TOF mass spectroscopy for each one them (Table 1). Determination of the Tm of the AON/RNA hybrids was carried out in the following buffer: 57 mM Tris-HCl (pH 7.5), 57 mM KCl, 1 mM MgCl2. Absorbance was monitored at 260 nm in the temperature range from 20° C. to 90° C. using UV spectrophotometer equipped with Peltier temperature programmer with the heating rate of 1° C. per minute. Prior to measurements, the samples (1 μM of AON and 1 μM RNA mixture) were pre-annealed by heating to 90° C. for 5 min followed by slow cooling to 4° C. and 30 min equilibration at this temperature and are average of at least three independent runs.

Another data set has as its system complementary DNA. Description: Thermal denaturation (UV melting) of AON duplexes with complementary DNA. The format is binding. Conditions: 1 μM of each strand, medium salt buffer pH 7.5, average of at least three runs.
Data set [1] in a line: Stability of 5′-32P-labeled AONs in human blood serum (PAGE autoradiography). Format: in vitro ADME. The following applies: human blood serum, 21° C. Here is the method:
FIG. 4. Autoradiograms of 20% denaturing PAGE showing degradation patterns of 5′-^32P-labeled AONs in human blood serum (Table 1 for all AON sequences). Inset A: AON 1 and LNA-modified AONs 2-5. Inset B: Carbocyclic-LNA-modified AONs 6-9. Inset C: Carbocyclic-ENA-modified AONs 10-13 and Inset D: aza-ENA-modified AONs 14-17. Time points are taken after 0, ½, 1 h, 2 h, 5 h, 7 h, 9 h, 12 h, for AONs 1-5 and 0 h, 6 h, 8 h, 12 h, 24 h, 36 h and 48 h of incubation for AONs 6-17 at 21° C. (see Experimental Section for details).
Modified sequences (Table 1), ^32P-labeled at 5′-ends, were digested in human blood serum at 21° C. as shown in the PAGE autoradiograms (Insets A, B, C and D in FIG. 4). In order to understand
AONs (6 μL) at 2 μM concentration (5′-end ^32P labeled with specific activity 80 000 cpm) were incubated in […] of human blood serum (male AB) at 21° C. (total reaction volume was 36 μL) and the experiments were repeated twice up to 48 h. Aliquots (3 μL) were taken at 0, 30 min, 1, 2, 5, 7, 8, 9, 12, 24, 36, 48 h and quenched with 7 μL of solution containing 8 M urea and 50 mM EDTA, resolved in 20% polyacrylamide denaturing (7 M urea) gel electrophoresis and visualized by autoradiography. […] Since no new prominent cleavage products were found toward the later time points, we considered those prominent stable initial fragments as 100% during the last time points (12-48 h).

The target of the next data set is E. coli RNase H1 (Escherichia coli, UniProt P0A7Y4). The following applies: AON/RNA duplex.
Sequence of E. coli RNase H1 (P0A7Y4 whole entry): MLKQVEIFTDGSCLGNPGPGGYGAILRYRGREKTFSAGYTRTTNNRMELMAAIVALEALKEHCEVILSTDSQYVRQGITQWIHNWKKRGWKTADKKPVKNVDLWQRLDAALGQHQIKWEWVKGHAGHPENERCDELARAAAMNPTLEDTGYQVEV

Procedure for E. coli RNase H1: Autoradiograms of 20% denaturing PAGE, showing the cleavage kinetics of 5′-^32P-labeled target RNA by E. coli RNase H1 in the AONs 1-17 after 2, 5, 10, 15, 30 and 60 min of incubation. Conditions of cleavage reactions: RNA (0.8 μM) and AONs (4 μM) in buffer containing 20 nM Tris-HCL (pH 8.0), 20 mM KCL, 10 mM Mgcl2, and 0.1 mM DTT at 21° C.; 0.04 U of RNase H1. Inset A: LNA-T modified AONs 2-5 with native AON 1. Inset B: carbocyclic-LNA-T modified AONs 6-9. Inset C: carbocyclic-ENA-T modified AONs 10-13 with native AON 1. Inset D: aza-ENA-T modified AONs 14-17 with native AON 1. The graphs in Insets E, F, G, and H show the kinetics of RNase H1 mediated cleavage of the target RNA, the remaining fraction of target RNA is measured densitometrically and plotted as a function of time fitted to a single exponential decay function. Inset E: AON 1 with AONs 2-5. Inset F: for AON 1 with AONs 6-9. Inset G: AON 1 and AONs 10-13. Inset H: AON 1 and AONs 14-17.
The cleavage rates of RNase H digestion were determined by densitometric quantification of gels and subsequently by plotting the uncleaved RNA fraction as a function of time (Insets E-H in FIG. 6). The reaction rates were obtained by fitting the degradation curves to single-exponential decay functions.

In the case of “3′-d(CTTCTTTTTTACTTC)-5′ (DNA, backbone not given here) [AON 1]”, the “Tm/° C. with RNA” value with complementary RNA was determined as 44 °C. The “Tm/° C. with DNA” value in the data set with complementary DNA was 45 °C. Moreover, the “time to full degradation” value in data set [1] was at most 12 h. The “RNase H cleavage pattern of the RNA compliment” value with E. coli RNase H1 was “cleaved quite randomly with a slight preference after A-8 position”.
